{"source": "patent US20220378763A1", "about": "“COMPOUND FOR TREATMENT OF ACUTE INFLAMMATION IN THE MYOCARDIUM” (CALPROTECT AB, priority 2019, published 2022)", "key": {"[1]": {"biological_target": "T1, S100A9 binding to RAGE (Homo sapiens, UniProt P06702)", "T1 sequence (P06702 1-114)": "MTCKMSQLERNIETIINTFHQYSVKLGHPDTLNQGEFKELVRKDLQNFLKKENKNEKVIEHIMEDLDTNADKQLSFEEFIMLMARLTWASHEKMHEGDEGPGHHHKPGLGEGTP", "assay": "Surface plasmon resonance (Biacore 3000): inhibition of S100A9 binding to immobilized RAGE", "settings": "50 nM recombinant human S100A9 over immobilized RAGE; response at late dissociation phase", "text": "(a) The molecular structure of ABR-238901. (b-c) Surface plasmon resonance measurement of S100A9 binding to immobilized RAGE (b) and TLR4 (c) in the presence of increasing ABR-238901 concentrations. The magnitude of the response for each ABR-238901 concentration (BABR-238901), measured at the late dissociation phase (t 350s), was expressed as percentage of the response in the absence of competitor (BO), and plotted against the concentration of ABR-238901.\nInhibition of S100A9 binding to RAGE and TLR4/MD2 by ABR-238901 was tested by surface plasmon resonance in a Biacore 3000 system (GE Healthcare, Uppsala, Sweden). Briefly, 50 nM of recombinant human S100A9 was injected over immobilized RAGE and TLR4 (2 min at 30 μL/min) in the presence of increasing concentrations of ABR-238901, ranging from 0.0488 to 100 μM. The magnitude of the responses measured at the late dissociation phase (t 350 s) in the presence of ABR-238901 (BABR-238901) were expressed as percentage of response in the absence of competitor (Bo), and plotted against the concentration of ABR-238901 (FIG. 7b-c). The curves were fit to a sigmoidal dose-response model with variable slope in Prism GraphPad for calculation of IC50."}, "[2]": {"test_system": "C57BL/6 mice with MI induced by permanent coronary artery ligation", "assay": "Quantitative PCR of whole heart tissue 3 days post-MI", "assay_type": "in vivo, mouse", "protocol": "Total RNA was isolated from whole heart tissue using the TRI Reagent™ Solution (Invitrogen) according to the manufacturer's instructions. cDNA was generated from 2 μg of total RNA per sample using the High Capacity RNA to cDNA™ Kit (Applied Biosystems™). Quantitative real-time TaqMan PCR was performed using the following TaqMan primers (Applied Biosystems): Il-1b (Mm00434228_m1), Arg-1 (Mm00475988_m1), Ym-1 (Mm00657889_mH), Cc/5 (Mm01302427_m1), Tnf-α (Mm00443258_m1), Il-12 (Mm01288989_m1), IFN-γ (Mm01168134_m1), Il-10 (Mm00439614_m1), TGF-β (Mm01178820_m1), Il-4 (Mm00445259_m1) and housekeeping gene Hypoxantine-guanine phosphoribosyltransferase (HPRT) (Mm01324427_m1). Quantitative PCR was run on a ViiA7 Real-Time PCR System (Applied Biosystems) and data were quantified with the 2^−ΔCt method.\nIn order to assess the effects of the treatment on the post-MI cardiac environment, we performed qPCR analysis of mRNA encoding for proteins involved in myocardial inflammation and repair. The analysis was done in whole heart tissue collected at 3 days post-MI from mice receiving ABR-238901 or PBS (n=5 mice per group). […] The expression of IL-1β, TNFα, IL-10 and TGFβ was not affected at this stage (FIG. 3C, D, H). […] As neutrophils are the main producers of S100A8/A9, this effect is in line with the blunted local and systemic neutrophil response to MI observed in ABR-238901-treated mice (FIG. 2A, H)."}, "[3]": {"test_system": "C57BL/6 mice with sepsis induced by bacterial lipopolysaccharide", "assay": "LPS-induced sepsis: echocardiography", "assay_type": "in vivo, mouse", "settings": "30 mg/kg i.p. at 0 and 6 h after LPS", "protocol": "Female C57BL/6NRJ mice, 10 weeks of age, were purchased from Janvier Labs and housed under 12 h:12 h light:dark cycles with access to food and water ad libitum. The mice were randomly assigned to the two treatment groups, n=5 mice per group. Sepsis was induced by intraperitoneal (i.p.) injection of 5 mg/kg bacterial lipopolysaccharide (Sigma-Aldrich) in all animals. Immediately thereafter and 6 h later, the mice received treatment with 30 mg/kg ABR-238901 or an equivalent volume of PBS administered i.p. The mice were monitored daily to ensure their well-being. All mouse studies were approved by the Animal Research Ethics Committee of Lund University.\nTransthoracic echocardiography was performed at baseline before induction of sepsis, and at 6 h, 12 h and 24 h using the Vevo 3100 platform (VisualSonics) equipped with a MX550D imaging transducer. Anesthesia was induced with 2% Isoflurane (AbbVie) and maintained with 1.25% Isoflurane throughout imaging. Hair was removed using depilatory cream before the application of pre-warmed ultrasound gel. Parasternal long axis recordings were performed in the plane containing the aortic valves and a maximal apex view. Analysis was carried out using the VevoLab software (Visual Sonics). Briefly, the perimeter and long axis of the left ventricle were traced at the end of diastole and at the end of systole and used to calculate left ventricular end-systolic and end-diastolic volumes. Left ventricular stroke volume was calculated as the difference between the left ventricular end-diastolic and end-systolic volumes. Left ventricular ejection fraction was calculated as percentage stroke volume out of the end-diastolic volume. Cardiac output was calculated by multiplying the stroke volume with the heart rate at the time of the examination."}}}
{"smiles": "COc1ncc(S(=O)(=O)Nc2cncc(Cl)c2O)cc1Br", "note": "[ABR-238901, 5-bromo-N-(5-chloro-4-hydroxypyridin-3-yl)-6-methoxypyridine-3-sulfonamide]", "values": [{"measurement": "IC50", "setting": "[1]", "value": 2700, "unit": "nM"}, {"measurement": "Gene expression of the chemokine CCL5/RANTES in heart", "setting": "[2]", "value": "inhibited"}, {"measurement": "IL-1β expression in heart", "setting": "[2]", "value": "not affected"}, {"measurement": "IL-10 expression in heart", "setting": "[2]", "value": "not affected"}, {"measurement": "TGFβ expression in heart", "setting": "[2]", "value": "not affected"}, {"measurement": "TNFα expression in heart", "setting": "[2]", "value": "not affected"}, {"measurement": "Arg-1 mRNA expression in heart", "setting": "[2]; vs MI controls", "value": "enhanced"}, {"measurement": "IFN-γ mRNA expression in heart", "setting": "[2]; vs MI controls", "value": "inhibited"}, {"measurement": "IL-4 mRNA expression in heart", "setting": "[2]; vs MI controls", "value": "enhanced"}, {"measurement": "IL-12 mRNA expression in heart", "setting": "[2]; vs MI controls", "value": "inhibited"}, {"measurement": "Ym-1 mRNA expression in heart", "setting": "[2]; vs MI controls", "value": "enhanced"}, {"measurement": "Left ventricular ejection fraction (LVEF)", "setting": "[3]; 12 h", "value": 44.7, "unit": "%"}, {"measurement": "Cardiac output", "setting": "[3]; 24 h", "value": 9.17, "unit": "mL/min"}, {"measurement": "Left ventricular ejection fraction (LVEF)", "setting": "[3]; 24 h", "value": 54.74, "unit": "%"}]}
